Holding throughout (test): Dundee kinase screen re-test (standard format and 4 hour pre-incubation)
Format in all cases: biochemical

One test concerns the target T1, TBK1 (Homo sapiens, UniProt Q9UHD2).
T1 sequence (Q9UHD2 1-729): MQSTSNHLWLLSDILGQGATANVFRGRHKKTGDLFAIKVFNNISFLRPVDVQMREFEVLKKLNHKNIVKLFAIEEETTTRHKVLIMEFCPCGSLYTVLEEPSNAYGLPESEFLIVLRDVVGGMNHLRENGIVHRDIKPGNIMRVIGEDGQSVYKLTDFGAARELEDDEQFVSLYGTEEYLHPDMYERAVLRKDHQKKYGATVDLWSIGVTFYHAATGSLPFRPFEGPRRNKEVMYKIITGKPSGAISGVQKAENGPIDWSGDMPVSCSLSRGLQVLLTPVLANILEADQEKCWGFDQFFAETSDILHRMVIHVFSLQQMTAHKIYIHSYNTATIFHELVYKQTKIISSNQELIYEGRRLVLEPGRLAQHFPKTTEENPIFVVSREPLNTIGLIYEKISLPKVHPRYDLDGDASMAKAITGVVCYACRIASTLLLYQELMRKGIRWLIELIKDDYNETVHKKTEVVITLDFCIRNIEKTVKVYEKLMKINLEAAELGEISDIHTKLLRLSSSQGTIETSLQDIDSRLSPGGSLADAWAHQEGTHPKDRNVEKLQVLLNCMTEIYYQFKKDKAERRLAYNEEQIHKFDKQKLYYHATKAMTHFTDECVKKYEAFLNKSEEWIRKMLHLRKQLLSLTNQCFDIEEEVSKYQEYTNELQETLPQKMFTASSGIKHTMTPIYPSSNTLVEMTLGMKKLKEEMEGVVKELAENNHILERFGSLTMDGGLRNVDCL
The settings on record: TBK1, 0.5µM. Summed up:
(§1)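 Selectivity panel of 131 protein kinases, inhibitor tested at a single concentration of 1 µM; values are % kinase activity remaining, mean of duplicates. Re-test of selected kinases used 0.5 µM in the standard format and again after a 4 hour pre-incubation with the inhibitor.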

The target of another test is CDK2-Cyclin A (Homo sapiens, UniProt P24941). The conditions noted are these: for remaining activity at 0.5 µM: CDK2/cyclin A. Summed up:
as §1

Another test concerns the target T2, PDK1 (Homo sapiens, UniProt O15530).
T2 sequence (O15530 1-556): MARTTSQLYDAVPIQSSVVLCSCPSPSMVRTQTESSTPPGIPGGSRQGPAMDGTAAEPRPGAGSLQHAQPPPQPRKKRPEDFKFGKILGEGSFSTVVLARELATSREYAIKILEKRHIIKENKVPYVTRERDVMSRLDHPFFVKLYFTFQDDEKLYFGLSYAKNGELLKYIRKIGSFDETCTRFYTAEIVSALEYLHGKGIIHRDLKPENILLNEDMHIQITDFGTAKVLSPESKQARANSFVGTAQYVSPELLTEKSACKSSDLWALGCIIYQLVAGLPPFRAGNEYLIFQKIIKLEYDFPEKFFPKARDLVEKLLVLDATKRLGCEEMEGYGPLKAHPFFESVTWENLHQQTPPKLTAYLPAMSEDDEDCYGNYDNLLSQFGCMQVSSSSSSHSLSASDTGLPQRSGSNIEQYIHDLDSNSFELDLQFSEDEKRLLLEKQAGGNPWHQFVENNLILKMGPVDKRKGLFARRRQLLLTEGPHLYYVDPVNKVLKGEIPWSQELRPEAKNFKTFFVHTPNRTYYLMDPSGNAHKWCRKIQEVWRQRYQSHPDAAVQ
The conditions noted are these: PDK1, 0.5µM. Summed up: as §1

The mark [1] stands for this setting: 4hr RT preincubation, read-out: %Remaining activity at 0.5µM NU6300 - 4hr RT preincubation.
Setting [2] is: usual format, read-out: %Remaining activity at 0.5µM NU6300 - Usual assay format.

As a reminder, the remaining activity is the share of the control activity or signal that is left under treatment.

Where two headings read alike, the source gives them in different places.

For `C=CS(=O)(=O)c1ccc(Nc2nc(OCC3CCCCC3)c3nc[nH]c3n2)cc1` [NU6300, 6-(cyclohexylmethoxy)-N-(4-(vinylsulfonyl)phenyl)-9H-purin-2-amine], the remaining activity at 0.5 µM at TBK1 (setting [1]) amounted to 75%; at TBK1 (setting [2]), 62%; on CDK2-Cyclin A (setting [1]), 9%; on CDK2-Cyclin A (setting [2]) it was 26%; on PDK1 (setting [1]) it was 40%; at PDK1 (setting [2]) it was 29%. Also, the “additional loss of activity after pre-incubation” value at CDK2-Cyclin A (CDK2, 4-hr pre-incubation vs usual format, 0.5 µM) is greater than 50%.

Source of the values: article PMC4579270, “Identification and Characterization of an Irreversible Inhibitor of CDK2” (Chemistry & Biology, 2015).
